Values quoted from earlier work in US20070298135A1, “TOPICAL HERBAL FORMULATIONS” (BIOBOTANIC CORP., priority 2006, published 2007).

For `C[C@@H]1CC[C@@]2(OC1)O[C@H]1C[C@H]3[C@@H]4CC=C5C[C@@H](O[C@@H]6O[C@H](CO)[C@@H](O[C@@H]7O[C@@H](C)[C@H](O)[C@@H](O)[C@H]7O)[C@H](O)[C@H]6O[C@@H]6O[C@@H](C)[C@H](O)[C@@H](O)[C@H]6O)CC[C@]5(C)[C@H]4CC[C@]3(C)[C@H]1[C@@H]2C` [Doscin], the “solubility in lipophilic organic solvent” value (lipophilic organic solvent) is listed as “insoluble” and the “solubility in polar liquid media” value (methanol, ethanol, n-butanol, water, hydrate methanol and ethanol, soluble = at least 0.1 mg/ml (w/v) at about 25° C.) is listed as “soluble”.
